Test results published in BindingDB's records for doi:10.1016/j.bioorg.2016.07.013 (Shenyang Pharmaceutical University, 2016).

Columns and labels:
Acetylcholinesterase = Acetylcholinesterase (Homo sapiens, UniProt P22303); assay: AChE and BuChE Inhibition Assay; conditions: pH 8
Method: (§1) The reaction mixture was consisted of 100 µL of the total volume.

Cholinesterase = Cholinesterase (Homo sapiens, UniProt P06276); assay: AChE and BuChE Inhibition Assay; conditions: pH 8
Method: as §1

Cholinesterase, sequence (P06276 whole entry): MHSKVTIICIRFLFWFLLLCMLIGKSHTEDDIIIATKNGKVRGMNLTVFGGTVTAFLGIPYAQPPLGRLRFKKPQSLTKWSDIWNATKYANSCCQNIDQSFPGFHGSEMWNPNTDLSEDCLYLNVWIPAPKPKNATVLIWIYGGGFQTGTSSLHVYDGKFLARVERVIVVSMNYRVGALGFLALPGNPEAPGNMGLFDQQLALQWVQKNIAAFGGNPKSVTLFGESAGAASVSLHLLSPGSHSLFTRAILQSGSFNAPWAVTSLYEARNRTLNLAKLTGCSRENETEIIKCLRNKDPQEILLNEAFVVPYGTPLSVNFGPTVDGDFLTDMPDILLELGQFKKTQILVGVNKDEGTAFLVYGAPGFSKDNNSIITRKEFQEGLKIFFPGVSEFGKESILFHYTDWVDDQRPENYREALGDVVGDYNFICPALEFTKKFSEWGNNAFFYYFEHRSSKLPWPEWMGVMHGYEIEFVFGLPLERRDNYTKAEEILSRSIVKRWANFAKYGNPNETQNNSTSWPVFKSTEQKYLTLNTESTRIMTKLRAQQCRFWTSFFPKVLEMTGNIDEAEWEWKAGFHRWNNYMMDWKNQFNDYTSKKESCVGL
Acetylcholinesterase, sequence (P22303 whole entry): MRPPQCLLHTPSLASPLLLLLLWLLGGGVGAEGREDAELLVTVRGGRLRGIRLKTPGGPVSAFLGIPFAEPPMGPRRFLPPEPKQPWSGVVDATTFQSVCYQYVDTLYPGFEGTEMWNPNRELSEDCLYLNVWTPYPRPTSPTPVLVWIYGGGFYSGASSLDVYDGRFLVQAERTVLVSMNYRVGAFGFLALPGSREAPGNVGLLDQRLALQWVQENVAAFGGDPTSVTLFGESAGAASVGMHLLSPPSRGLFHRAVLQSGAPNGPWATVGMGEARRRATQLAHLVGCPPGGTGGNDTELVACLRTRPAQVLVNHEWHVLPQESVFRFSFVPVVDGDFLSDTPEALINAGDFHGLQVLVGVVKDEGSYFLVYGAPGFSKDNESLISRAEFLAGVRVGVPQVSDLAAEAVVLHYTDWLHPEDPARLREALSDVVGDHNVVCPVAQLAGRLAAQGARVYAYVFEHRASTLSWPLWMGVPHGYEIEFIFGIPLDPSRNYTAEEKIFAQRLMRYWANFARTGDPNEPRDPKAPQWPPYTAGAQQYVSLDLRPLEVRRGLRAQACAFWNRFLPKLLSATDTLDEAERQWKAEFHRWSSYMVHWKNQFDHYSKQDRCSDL

Row | Structure (SMILES) | IC50 (Acetylcholinesterase) | IC50 (Cholinesterase)
1 | COc1ccc2cc(C(=O)Nc3ccc(CN4CCN(C)CC4)c(C(F)(F)F)c3)c(=O)oc2c1 [7-Methoxy-N-(4-((4-methylpiperazin-1-yl)methyl)-3-(trifluoromethyl)phenyl)-2-oxo-2H-chromene-3-carboxamide (9j)] | 591 nM | 
2 | COc1cccc2cc(C(=O)Nc3ccc(CN4CCN(C)CC4)c(C(F)(F)F)c3)c(=O)oc12 [8-Methoxy-N-(4-((4-methylpiperazin-1-yl)methyl)-3-(trifluoromethyl)phenyl)-2-oxo-2H-chromene-3-carboxamide (9d)] | 1450 nM | 
3 | CN1CCN(Cc2ccc(NC(=O)c3cc4ccccc4oc3=O)cc2Cl)CC1 [N-(3-chloro-4-((4-methylpiperazin-1-yl)methyl)phenyl)-2-oxo-2H-chromene-3-carboxamide (9k)] | 1300 nM | 1970 nM
4 | CCN1CCN(Cc2ccc(NC(=O)c3cc4cc(Cl)ccc4oc3=O)cc2Cl)CC1 [6-Chloro-N-(3-chloro-4-((4-ethylpiperazin-1-yl)methyl)phenyl)-2-oxo-2H-chromene-3-carboxamide (9p)] | 222 nM | 
5 | CCN1CCN(Cc2ccc(NC(=O)c3cc4cc([N+](=O)[O-])ccc4oc3=O)cc2Cl)CC1 [N-(3-chloro-4-((4-ethylpiperazin-1-yl)methyl)phenyl)-6-nitro-2-oxo-2H-chromene-3-carboxamide (9x)] | 34 nM | 
6 | CN1CCN(Cc2ccc(NC(=O)c3cc4cc(Br)ccc4oc3=O)cc2Cl)CC1 [6-Bromo-N-(3-chloro-4-((4-methylpiperazin-1-yl)methyl)phenyl)-2-oxo-2H-chromene-3-carboxamide (9u)] | 330 nM | 1890 nM
7 | COc1ccc2cc(C(=O)Nc3ccc(CN4CCN(C)CC4)c(Cl)c3)c(=O)oc2c1 [N-(3-chloro-4-((4-methylpiperazin-1-yl)methyl)phenyl)-7-methoxy-2-oxo-2H-chromene-3-carboxamide (9g)] | 1540 nM | 1680 nM
8 | COc1cccc2cc(C(=O)Nc3ccc(CN4CCN(C)CC4)c(Cl)c3)c(=O)oc12 [N-(3-chloro-4-((4-methylpiperazin-1-yl)methyl)phenyl)-8-methoxy-2-oxo-2H-chromene-3-carboxamide (9b)] | 1220 nM | 1770 nM
9 | CCN1CCN(Cc2ccc(NC(=O)c3cc4ccccc4oc3=O)cc2Cl)CC1 [N-(3-chloro-4-((4-ethylpiperazin-1-yl)methyl)phenyl)-2-oxo-2H-chromene-3-carboxamide (9l)] | 1300 nM | 1590 nM
10 | CCN1CCN(Cc2ccc(NC(=O)c3cc4cc(Br)ccc4oc3=O)cc2Cl)CC1 [6-Bromo-N-(3-chloro-4-((4-ethylpiperazin-1-yl)methyl)phenyl)-2-oxo-2H-chromene-3-carboxamide (9t)] | 120 nM | 
11 | CCN1CCN(Cc2ccc(NC(=O)c3cc4ccc(OC)cc4oc3=O)cc2Cl)CC1 [N-(3-chloro-4-((4-ethylpiperazin-1-yl)methyl)phenyl)-7-methoxy-2-oxo-2H-chromene-3-carboxamide (9f)] | 122 nM | 
12 | CN1CCN(Cc2ccc(NC(=O)c3cc4ccccc4oc3=O)cc2C(F)(F)F)CC1 [N-(4-((4-methylpiperazin-1-yl)methyl)-3-(trifluoromethyl)phenyl)-2-oxo-2H-chromene-3-carboxamide (9o)] | 618 nM | 
13 | CCN1CCN(Cc2ccc(NC(=O)c3cc4cccc(OC)c4oc3=O)cc2Cl)CC1 [N-(3-chloro-4-((4-ethylpiperazin-1-yl)methyl)phenyl)-8-methoxy-2-oxo-2H-chromene-3-carboxamide (9a)] | 195 nM | 
14 | CN1CCN(Cc2ccc(NC(=O)c3cc4cc(Cl)ccc4oc3=O)cc2Cl)CC1 [6-Chloro-N-(3-chloro-4-((4-methylpiperazin-1-yl)methyl)phenyl)-2-oxo-2H-chromene-3-carboxamide (9q)] | 841 nM | 1790 nM
15 | CN1CCN(Cc2ccc(NC(=O)c3cc4cc([N+](=O)[O-])ccc4oc3=O)cc2Cl)CC1 [N-(3-chloro-4-((4-methylpiperazin-1-yl)methyl)phenyl)-6-nitro-2-oxo-2H-chromene-3-carboxamide (9y)] | 807 nM | 1880 nM
